Measurements published in patent US10479786B2, “Protein kinase inhibitors” (Princeton Drug Discovery Inc, priority 2016, dated 2019).

What was measured:
FRK = target: T1, FRK (Homo sapiens, UniProt P42685); assay: Off-chip Mobility Shift Assay, kinase inhibition; type: biochemical; details: at 10 nM; recombinant FRK
T1 construct: purchased Carna Biosciences, Inc

SRC = target: T2, SRC (Homo sapiens, UniProt P12931); assay: Off-chip Mobility Shift Assay, kinase inhibition; type: biochemical; details: recombinant SRC; for inhibition at 0.001 µM: at 1 nM; for inhibition at 0.01 µM: at 10 nM
T2 construct: purchased Carna Biosciences, Inc

SU-DHL-4 = assay: Cell inhibition assay (PrestoBlue, 48 h); type: cell-based; details: Homo sapiens, SU-DHL-4, 48 h, SU-DHL-4 diffuse large B-cell lymphoma cells, read-out: IC50, inhibition of growth
PIK3CA/PIK3R1 = target: T3, PIK3CA/PIK3R1 (Homo sapiens, UniProt P42336); assay: Off-chip Mobility Shift Assay, kinase inhibition; type: biochemical; details: at 10 nM; recombinant PIK3CA/PIK3R1
T3 construct: purchased Carna Biosciences, Inc
T3 sequence (P42336 whole entry): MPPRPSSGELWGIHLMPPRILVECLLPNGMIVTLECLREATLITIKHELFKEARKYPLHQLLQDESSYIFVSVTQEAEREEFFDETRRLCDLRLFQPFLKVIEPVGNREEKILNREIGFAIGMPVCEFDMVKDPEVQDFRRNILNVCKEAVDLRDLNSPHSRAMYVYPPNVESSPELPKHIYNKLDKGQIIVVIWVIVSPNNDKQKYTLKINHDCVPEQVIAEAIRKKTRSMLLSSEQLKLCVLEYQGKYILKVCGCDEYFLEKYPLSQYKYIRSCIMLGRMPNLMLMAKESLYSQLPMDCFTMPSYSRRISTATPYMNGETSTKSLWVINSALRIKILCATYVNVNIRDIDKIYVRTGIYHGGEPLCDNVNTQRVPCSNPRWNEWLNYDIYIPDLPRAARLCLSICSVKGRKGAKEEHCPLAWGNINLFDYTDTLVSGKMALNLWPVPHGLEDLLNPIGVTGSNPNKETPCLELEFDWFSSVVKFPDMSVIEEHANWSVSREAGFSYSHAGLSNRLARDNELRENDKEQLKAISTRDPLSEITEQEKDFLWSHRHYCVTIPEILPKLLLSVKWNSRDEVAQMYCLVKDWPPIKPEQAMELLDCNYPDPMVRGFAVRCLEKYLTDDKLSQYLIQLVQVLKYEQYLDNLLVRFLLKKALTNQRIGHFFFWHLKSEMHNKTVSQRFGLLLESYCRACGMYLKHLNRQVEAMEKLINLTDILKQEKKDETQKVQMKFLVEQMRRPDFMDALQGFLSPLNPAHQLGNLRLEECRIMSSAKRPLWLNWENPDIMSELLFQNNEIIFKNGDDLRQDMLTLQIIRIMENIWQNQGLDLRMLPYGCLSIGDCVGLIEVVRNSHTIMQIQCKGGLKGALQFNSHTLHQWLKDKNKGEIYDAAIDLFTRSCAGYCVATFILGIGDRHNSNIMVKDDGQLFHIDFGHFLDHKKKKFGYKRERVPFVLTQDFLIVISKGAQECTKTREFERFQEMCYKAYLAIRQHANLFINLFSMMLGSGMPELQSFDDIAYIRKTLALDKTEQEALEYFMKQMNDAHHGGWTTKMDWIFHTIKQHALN
T3 sequence (P27986 whole entry partner): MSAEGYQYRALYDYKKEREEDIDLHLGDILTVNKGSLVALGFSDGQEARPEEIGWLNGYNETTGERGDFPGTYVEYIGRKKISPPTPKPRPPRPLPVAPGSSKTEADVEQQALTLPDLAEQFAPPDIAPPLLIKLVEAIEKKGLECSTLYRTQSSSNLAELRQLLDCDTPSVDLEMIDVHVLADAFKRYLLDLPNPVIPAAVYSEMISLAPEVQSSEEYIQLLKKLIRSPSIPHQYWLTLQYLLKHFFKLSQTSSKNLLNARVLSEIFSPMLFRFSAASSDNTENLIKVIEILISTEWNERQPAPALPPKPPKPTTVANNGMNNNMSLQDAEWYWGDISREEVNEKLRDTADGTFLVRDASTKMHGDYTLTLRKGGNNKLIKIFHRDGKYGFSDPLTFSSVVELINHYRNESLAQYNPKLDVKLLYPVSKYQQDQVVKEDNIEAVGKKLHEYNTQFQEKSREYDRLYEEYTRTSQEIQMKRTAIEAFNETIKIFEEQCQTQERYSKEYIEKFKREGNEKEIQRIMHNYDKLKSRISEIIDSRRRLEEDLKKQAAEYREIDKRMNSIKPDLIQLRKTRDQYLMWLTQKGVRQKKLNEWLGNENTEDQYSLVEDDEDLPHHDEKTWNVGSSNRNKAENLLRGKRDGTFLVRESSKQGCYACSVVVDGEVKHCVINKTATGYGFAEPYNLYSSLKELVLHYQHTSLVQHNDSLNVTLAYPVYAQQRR

FMS = target: T4, FMS (Homo sapiens, UniProt P07333); assay: Off-chip Mobility Shift Assay, kinase inhibition; type: biochemical; details: at 10 nM; recombinant FMS
T4 construct: purchased Carna Biosciences, Inc

FGR = target: T5, FGR (Homo sapiens, UniProt P09769); assay: Off-chip Mobility Shift Assay, kinase inhibition; type: biochemical; details: at 10 nM; recombinant FGR; read-out: inhibition
T5 construct: purchased Carna Biosciences, Inc
T5 sequence (P09769 whole entry): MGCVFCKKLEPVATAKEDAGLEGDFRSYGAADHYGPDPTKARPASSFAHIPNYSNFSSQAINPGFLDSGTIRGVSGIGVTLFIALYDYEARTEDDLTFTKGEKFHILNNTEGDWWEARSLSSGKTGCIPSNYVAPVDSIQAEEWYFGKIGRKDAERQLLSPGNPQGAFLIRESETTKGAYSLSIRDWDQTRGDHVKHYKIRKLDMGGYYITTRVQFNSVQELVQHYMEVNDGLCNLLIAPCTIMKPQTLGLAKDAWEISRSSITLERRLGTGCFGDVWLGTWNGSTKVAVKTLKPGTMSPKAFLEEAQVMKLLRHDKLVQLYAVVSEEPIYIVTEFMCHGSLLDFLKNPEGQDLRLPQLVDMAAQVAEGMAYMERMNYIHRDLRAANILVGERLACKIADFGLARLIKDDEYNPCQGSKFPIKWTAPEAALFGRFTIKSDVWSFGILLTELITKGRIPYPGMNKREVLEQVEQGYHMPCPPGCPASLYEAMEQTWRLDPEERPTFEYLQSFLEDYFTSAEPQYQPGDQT

LCK = target: T6, LCK (Homo sapiens, UniProt P06239); assay: Off-chip Mobility Shift Assay, kinase inhibition; type: biochemical; details: recombinant LCK; for inhibition at 0.001 µM: at 1 nM; for inhibition at 0.01 µM: at 10 nM
T6 construct: purchased Carna Biosciences, Inc
T6 sequence (P06239 whole entry): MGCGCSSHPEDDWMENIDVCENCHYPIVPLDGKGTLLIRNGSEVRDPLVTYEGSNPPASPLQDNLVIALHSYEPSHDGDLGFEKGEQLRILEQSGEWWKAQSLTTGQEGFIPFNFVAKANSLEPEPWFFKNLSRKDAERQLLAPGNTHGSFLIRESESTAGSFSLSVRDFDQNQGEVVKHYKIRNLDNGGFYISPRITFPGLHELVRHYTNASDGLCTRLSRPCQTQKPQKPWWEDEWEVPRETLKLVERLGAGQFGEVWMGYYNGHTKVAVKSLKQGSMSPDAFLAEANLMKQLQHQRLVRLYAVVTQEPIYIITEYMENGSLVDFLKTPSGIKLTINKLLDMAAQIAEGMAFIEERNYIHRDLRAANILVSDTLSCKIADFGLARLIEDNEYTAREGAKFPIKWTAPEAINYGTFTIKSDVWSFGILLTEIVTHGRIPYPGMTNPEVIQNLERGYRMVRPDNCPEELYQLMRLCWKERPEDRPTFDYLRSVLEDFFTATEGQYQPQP

EPHA1 = target: T7, EPHA1 (Homo sapiens, UniProt P21709); assay: Off-chip Mobility Shift Assay, kinase inhibition; type: biochemical; details: at 10 nM; recombinant EPHA1
T7 construct: purchased Carna Biosciences, Inc
T7 sequence (P21709 26-976): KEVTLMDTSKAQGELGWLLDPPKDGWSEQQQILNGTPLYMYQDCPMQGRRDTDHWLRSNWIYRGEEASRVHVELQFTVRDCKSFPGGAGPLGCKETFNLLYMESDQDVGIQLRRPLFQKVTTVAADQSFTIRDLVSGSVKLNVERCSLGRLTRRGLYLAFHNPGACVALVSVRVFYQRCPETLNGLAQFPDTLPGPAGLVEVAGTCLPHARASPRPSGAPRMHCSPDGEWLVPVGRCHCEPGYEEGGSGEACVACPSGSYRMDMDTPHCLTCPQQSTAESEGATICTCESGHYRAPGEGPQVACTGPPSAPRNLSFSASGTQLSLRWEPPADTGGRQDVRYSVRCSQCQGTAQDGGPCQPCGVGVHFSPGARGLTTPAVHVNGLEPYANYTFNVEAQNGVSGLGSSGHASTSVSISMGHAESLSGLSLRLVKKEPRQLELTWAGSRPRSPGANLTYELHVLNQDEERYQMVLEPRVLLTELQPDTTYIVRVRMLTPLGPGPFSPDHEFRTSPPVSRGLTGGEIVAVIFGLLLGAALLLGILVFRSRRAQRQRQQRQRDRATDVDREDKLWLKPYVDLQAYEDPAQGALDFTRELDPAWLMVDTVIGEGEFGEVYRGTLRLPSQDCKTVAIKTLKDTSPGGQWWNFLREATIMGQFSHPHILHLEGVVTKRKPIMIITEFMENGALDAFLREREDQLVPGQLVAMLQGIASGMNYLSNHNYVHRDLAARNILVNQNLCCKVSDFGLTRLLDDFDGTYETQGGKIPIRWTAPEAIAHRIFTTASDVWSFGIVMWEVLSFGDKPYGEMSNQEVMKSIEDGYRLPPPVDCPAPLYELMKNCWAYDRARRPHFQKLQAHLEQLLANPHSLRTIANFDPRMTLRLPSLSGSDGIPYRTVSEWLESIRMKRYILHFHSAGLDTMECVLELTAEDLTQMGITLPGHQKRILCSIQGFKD

PDGFRβ = target: T8, PDGFRβ (Homo sapiens, UniProt P09619); assay: Off-chip Mobility Shift Assay, kinase inhibition; type: biochemical; details: at 10 nM; recombinant PDGFRβ; read-out: inhibition
T8 construct: purchased Carna Biosciences, Inc
T8 sequence (P09619 33-1106): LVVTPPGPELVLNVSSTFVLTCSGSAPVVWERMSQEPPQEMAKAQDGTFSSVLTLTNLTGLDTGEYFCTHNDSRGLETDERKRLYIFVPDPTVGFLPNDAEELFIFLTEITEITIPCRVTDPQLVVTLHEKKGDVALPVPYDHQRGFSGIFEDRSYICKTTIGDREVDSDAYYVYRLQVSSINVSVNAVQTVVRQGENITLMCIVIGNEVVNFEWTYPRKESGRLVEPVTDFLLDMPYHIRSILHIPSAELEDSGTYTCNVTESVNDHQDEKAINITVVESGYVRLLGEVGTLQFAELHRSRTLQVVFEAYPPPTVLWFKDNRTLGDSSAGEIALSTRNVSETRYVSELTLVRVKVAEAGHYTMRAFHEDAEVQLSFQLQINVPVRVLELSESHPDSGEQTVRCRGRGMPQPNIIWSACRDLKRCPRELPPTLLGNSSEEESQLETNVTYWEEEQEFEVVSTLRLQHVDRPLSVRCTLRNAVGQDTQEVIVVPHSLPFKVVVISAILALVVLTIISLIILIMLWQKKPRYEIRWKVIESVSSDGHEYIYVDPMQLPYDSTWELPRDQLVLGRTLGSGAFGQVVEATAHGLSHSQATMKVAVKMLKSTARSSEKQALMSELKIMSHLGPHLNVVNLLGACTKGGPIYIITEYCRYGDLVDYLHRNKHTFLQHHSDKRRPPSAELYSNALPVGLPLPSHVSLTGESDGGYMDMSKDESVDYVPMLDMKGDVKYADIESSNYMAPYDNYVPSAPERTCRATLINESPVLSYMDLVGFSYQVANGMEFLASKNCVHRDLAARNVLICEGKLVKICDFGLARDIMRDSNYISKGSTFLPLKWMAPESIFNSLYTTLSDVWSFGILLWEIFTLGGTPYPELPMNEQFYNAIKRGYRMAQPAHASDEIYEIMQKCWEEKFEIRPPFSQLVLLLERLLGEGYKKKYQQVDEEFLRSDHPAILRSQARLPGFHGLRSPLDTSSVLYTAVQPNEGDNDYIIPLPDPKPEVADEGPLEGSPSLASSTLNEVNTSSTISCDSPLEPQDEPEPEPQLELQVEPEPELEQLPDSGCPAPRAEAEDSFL

ABL(E255K) = target: T9, ABL(E255K) (Homo sapiens, UniProt P00519, E255K); assay: Off-chip Mobility Shift Assay, kinase inhibition; type: biochemical; details: recombinant ABL(E255K); for inhibition at 0.001 µM: at 1 nM; for inhibition at 0.01 µM: at 10 nM
T9 construct: purchased Carna Biosciences, Inc
T9 sequence (P00519 whole entry E255K): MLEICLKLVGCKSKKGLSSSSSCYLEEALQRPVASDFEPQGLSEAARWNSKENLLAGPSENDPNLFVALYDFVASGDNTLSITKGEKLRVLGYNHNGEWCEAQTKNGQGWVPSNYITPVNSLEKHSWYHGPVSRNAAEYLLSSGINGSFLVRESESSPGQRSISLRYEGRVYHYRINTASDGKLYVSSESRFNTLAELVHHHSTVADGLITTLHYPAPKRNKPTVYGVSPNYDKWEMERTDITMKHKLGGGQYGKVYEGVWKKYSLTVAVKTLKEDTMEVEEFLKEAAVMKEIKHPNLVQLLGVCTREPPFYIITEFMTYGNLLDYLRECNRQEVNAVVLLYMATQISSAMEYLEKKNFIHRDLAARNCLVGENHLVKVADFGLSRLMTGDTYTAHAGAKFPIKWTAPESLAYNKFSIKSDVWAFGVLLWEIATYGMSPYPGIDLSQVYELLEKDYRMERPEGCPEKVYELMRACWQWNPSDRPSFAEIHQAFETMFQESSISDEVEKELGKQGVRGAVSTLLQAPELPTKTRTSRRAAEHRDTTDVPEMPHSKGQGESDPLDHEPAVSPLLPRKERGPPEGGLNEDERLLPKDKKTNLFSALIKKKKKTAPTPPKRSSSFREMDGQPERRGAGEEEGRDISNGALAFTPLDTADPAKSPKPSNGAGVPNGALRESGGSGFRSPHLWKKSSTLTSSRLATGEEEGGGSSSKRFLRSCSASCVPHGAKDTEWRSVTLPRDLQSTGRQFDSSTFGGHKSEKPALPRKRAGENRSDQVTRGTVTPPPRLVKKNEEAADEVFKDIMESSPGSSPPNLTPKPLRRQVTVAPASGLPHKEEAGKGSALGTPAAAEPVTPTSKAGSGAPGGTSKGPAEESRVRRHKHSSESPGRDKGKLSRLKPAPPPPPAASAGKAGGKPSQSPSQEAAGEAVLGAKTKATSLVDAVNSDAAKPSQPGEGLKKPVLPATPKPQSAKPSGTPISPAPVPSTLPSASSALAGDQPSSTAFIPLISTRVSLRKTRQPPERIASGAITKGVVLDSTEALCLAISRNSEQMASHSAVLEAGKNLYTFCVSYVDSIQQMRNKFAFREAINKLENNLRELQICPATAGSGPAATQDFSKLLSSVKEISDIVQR

ARG = target: T10, ARG (Homo sapiens, UniProt P42684); assay: Off-chip Mobility Shift Assay, kinase inhibition; type: biochemical; details: at 10 nM; recombinant ARG; read-out: inhibition
T10 construct: purchased Carna Biosciences, Inc

DDR2 = target: T11, DDR2 (Homo sapiens, UniProt Q16832); assay: Off-chip Mobility Shift Assay, kinase inhibition; type: biochemical; details: at 10 nM; recombinant DDR2; read-out: inhibition
T11 construct: purchased Carna Biosciences, Inc
T11 sequence (Q16832 22-855): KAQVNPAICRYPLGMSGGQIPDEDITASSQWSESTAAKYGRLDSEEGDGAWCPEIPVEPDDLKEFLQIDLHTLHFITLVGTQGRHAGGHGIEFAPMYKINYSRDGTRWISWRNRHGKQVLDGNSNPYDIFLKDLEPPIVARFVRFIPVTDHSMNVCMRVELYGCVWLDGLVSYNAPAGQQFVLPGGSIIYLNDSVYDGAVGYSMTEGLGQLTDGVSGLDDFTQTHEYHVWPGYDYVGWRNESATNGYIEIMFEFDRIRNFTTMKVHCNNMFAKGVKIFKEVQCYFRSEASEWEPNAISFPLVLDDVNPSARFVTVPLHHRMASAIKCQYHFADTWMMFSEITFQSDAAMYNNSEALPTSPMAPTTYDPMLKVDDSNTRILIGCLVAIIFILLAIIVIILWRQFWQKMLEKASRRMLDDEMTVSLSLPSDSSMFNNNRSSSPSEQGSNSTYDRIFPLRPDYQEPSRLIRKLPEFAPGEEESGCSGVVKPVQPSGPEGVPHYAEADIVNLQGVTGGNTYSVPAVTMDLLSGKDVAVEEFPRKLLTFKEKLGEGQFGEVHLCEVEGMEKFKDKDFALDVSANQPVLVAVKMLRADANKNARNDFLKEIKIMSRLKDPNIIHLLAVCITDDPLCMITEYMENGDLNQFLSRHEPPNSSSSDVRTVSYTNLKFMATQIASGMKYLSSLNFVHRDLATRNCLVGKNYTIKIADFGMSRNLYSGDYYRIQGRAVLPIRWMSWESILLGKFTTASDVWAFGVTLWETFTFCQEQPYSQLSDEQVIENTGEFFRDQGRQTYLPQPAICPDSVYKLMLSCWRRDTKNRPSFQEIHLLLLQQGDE

HCK = target: T12, HCK (Homo sapiens, UniProt P08631); assay: Off-chip Mobility Shift Assay, kinase inhibition; type: biochemical; details: recombinant HCK; for inhibition at 0.001 µM: at 1 nM; for inhibition at 0.01 µM: at 10 nM, read-out: inhibition
T12 construct: purchased Carna Biosciences, Inc

BTK = target: T13, BTK (Homo sapiens, UniProt Q06187); assay: Off-chip Mobility Shift Assay, kinase inhibition; type: biochemical; details: recombinant BTK; for inhibition at 0.001 µM: at 1 nM; for inhibition at 0.01 µM: at 10 nM
T13 construct: purchased Carna Biosciences, Inc

FYN(isoform a) = target: T14, FYN(isoform a) (Homo sapiens, UniProt P06241); assay: Off-chip Mobility Shift Assay, kinase inhibition; type: biochemical; details: at 10 nM; recombinant FYN(isoform a)
T14 construct: purchased Carna Biosciences, Inc

Row | Compound | inhibition at 0.01 µM (FRK) [%] | inhibition at 0.001 µM (SRC) [%] | inhibition at 0.01 µM (SRC) [%] | IC50 (SU-DHL-4) [nM] | inhibition at 0.01 µM (PIK3CA/PIK3R1) [%] | inhibition at 0.01 µM (FMS) [%] | inhibition at 0.01 µM (FGR) [%] | inhibition at 0.001 µM (LCK) [%] | inhibition at 0.01 µM (LCK) [%] | inhibition at 0.01 µM (EPHA1) [%] | inhibition at 0.01 µM (PDGFRβ) [%] | inhibition at 0.001 µM (ABL(E255K)) [%] | inhibition at 0.01 µM (ABL(E255K)) [%] | inhibition at 0.01 µM (ARG) [%] | inhibition at 0.01 µM (DDR2) [%] | inhibition at 0.001 µM (HCK) [%] | inhibition at 0.01 µM (HCK) [%] | inhibition at 0.001 µM (BTK) [%] | inhibition at 0.01 µM (BTK) [%] | inhibition at 0.01 µM (FYN(isoform a)) [%]
1 | [2H]c1cc(C)c(NC(=O)c2cnc(Nc3cc(N4CC[C@H](O)C4)nc(C)n3)s2)c(Cl)c1 [Compound IV, N-(2-chloro-4-deutero-6-methylphenyl)-2-[[2-methyl-6-((S)-3-hydroxypyrrolidin-1-yl)pyrimidin-4-yl]amino]thiazole-5-carboxamide] | > 50 | > 50 | > 50 | < 20 | > 50 | > 50 | > 50 | > 50 | > 50 | > 50 | > 50 | > 50 | > 50 | > 50 | > 50 | > 50 | > 50 | > 50 | > 50 | > 50
2 | Cc1nc(Nc2ncc(C(=O)Nc3c(C)cccc3Cl)s2)cc(N2CCC(O)CC2)n1 [Compound IX, N-(2-chloro-6-methylphenyl)-2-[[2-methyl-6-(4-hydroxypiperidin-1-yl)pyrimidin-4-yl]amino]thiazole-5-carboxamide] | > 50 | > 50 | > 50 | < 20 | > 50 | > 50 | > 50 | > 50 | > 50 | > 50 | > 50 | > 50 | > 50 | > 50 | > 50 | > 50 | > 50 | > 50 | > 50 | > 50
3 | [2H]c1cc(C)c(NC(=O)c2cnc(Nc3cc(N4CC[C@@H](O)C4)nc(C)n3)s2)c(Cl)c1 [Compound V, N-(2-chloro-4-deutero-6-methylphenyl)-2-[[2-methyl-6-((R)-3-hydroxypyrrolidin-1-yl)pyrimidin-4-yl]amino]thiazole-5-carboxamide] | > 50 | > 50 | > 50 | < 20 | > 50 | > 50 | > 50 | > 50 | > 50 | > 50 | > 50 | > 50 | > 50 | > 50 | > 50 | > 50 | > 50 | > 50 | > 50 | > 50
